Drawing on ChEMBL document CHEMBL5104093, “A comprehensive review on β-lapachone: Mechanisms, structural modifications, and therapeutic potentials” (Eur J Med Chem, 2021), this text covers MIC for ten compounds.

Structures are written as SMILES. Values after ≈ are worked out from the molar mass of the structure shown.

Test [1] deals with Mycobacterium tuberculosis. In words: Antimycobacterial activity against rifampicin resistant Mycobacterium tuberculosis ATCC 35338 assessed as bacterial growth inhibition incubated for 7 days by resazurin dye based microtiter assay. The class given is functional. As to conditions: ATCC 35338, 168 h, time 7 day.
The subject of test [2] is Mycobacterium tuberculosis. In words: Antimycobacterial activity against rifampicin resistant Mycobacterium tuberculosis ATCC 35822 assessed as bacterial growth inhibition incubated for 7 days by resazurin dye based microtiter assay. It counts as functional. Conditions: ATCC 35822, 168 h, time 7 day. For orientation: Alamar Blue is a resazurin reagent that responds to reducing activity.

By MIC is commonly meant the least concentration at which growth counts as inhibited.

On to `COc1ccccc1-c1nc2c([nH]1)c1c(c3ccccc32)OC(C)(C)CC1`, for which the MIC in test [1] was determined as 1.56 µg/mL (≈ 4.35 µM).
With `CC1(C)CCc2c(c3ccccc3c3nc(-c4cccc(Br)c4)[nH]c23)O1`, the minimal inhibitory concentration (MIC) in test [1] came to 1.56 µg/mL (≈ 3.83 µM).
As to `C=CCC1Cc2c(c3ccccc3c3nc4ccccc4nc23)OC1(C)C` (stereo unspecified), the minimum inhibitory concentration (MIC) in test [1] turned out to be 0.78 µg/mL (≈ 2.2 µM).
Take `CC1(C)CCc2c(c3ccccc3c3nc(-c4cccc(C(F)(F)F)c4)[nH]c23)O1`: the MIC in test [1] turned out to be 1.56 µg/mL (≈ 3.94 µM).
Take `CC1(C)CCc2c(c3ccccc3c3nc(-c4cccc(F)c4)[nH]c23)O1`: in test [1], the MIC turned out to be 1.56 µg/mL (≈ 4.5 µM).
Take `CC1(C)CCc2c(c3ccccc3c3nc(-c4ccc([N+](=O)[O-])cc4)[nH]c23)O1`: the MIC was over 100 µg/mL in test [1] and 1.56 µg/mL (≈ 4.18 µM) in test [2].
Regarding `Cc1ccccc1-c1nc2c([nH]1)c1c(c3ccccc32)OC(C)(C)CC1`, in test [1], the MIC was determined as 1.56 µg/mL (≈ 4.56 µM).
Take `CC1(C)Oc2c(c3nc4ccccc4nc3c3ccccc23)C=C1Br`: the MIC in test [1] was under 6.25 µg/mL.
For `Cc1ccc(-c2nc3c([nH]2)c2c(c4ccccc43)OC(C)(C)CC2)cc1`, in test [1], the MIC turned out to be 6.25 µg/mL (≈ 18.3 µM).
Take `CC1CCC2C(C1)c1c(c3ccccc3c3nc4ccccc4nc13)OC2(C)C` (stereo unspecified): the MIC in test [1] was under 6.25 µg/mL.
